Experimental data from patent US7842678B2, “Compositions comprising oligosaccharides” (priority 2003, dated 2010).

Tests used:
[1] = test system: VTEC NCTC 12900 adhesion to HT29 cells; assay: Adhesion assay of VTEC to HT29 cells, cultures subcultured on three successive days (Example 2); format: cell-based, E. coli; settings: for Inhibition of adhesion of VTEC to HT29 cells (FIG. 2): VTEC subcultured on three successive days; for Inhibition of adhesion of VTEC to HT29 cells (FIG. 1): 2.5 mg ml, plate counting, relative to oligosaccharide-free control
Method: VTEC NCTC 12900 was inoculated from frozen stocks into Dulbecco's modified eagle medium (DMEM) with added non-essential amino acids (1% v/v) and foetal bovine serum (5% v/v). The culture was incubated anaerobically at 37° C. for 18 h. A 20 μl aliquot was transferred into 2 ml of fresh DMEM, and incubated under the same conditions for 24 h. This was repeated twice more, so that the organism was subcultured on three successive days. An adhesion assay was then carried out as described previously, using 2.5 mg ml methyl-α-D-mannopyrannoside and D-mannose, and the adhered bacteria were enumerated by using plate counting.
Alpha 1,2 mannobiose and alpha 1,6 mannobiose were assayed for anti-adhesive activity using the method described hereinabove, with the modification that the VTEC cultures were subcultured on three successive days as described above.
Further oligosaccharides (pectic oligosaccharides, isomalto-oligosaccharides, GOS, partially hydrolyzed guar gum, xylo oligosaccharides and lactulose) have been tested for anti-adhesive activity against E. coli, both VTEC and EPEC pathovars. Methods were as described previously but with three subcultures included in the culture preparation stage, as described above. Compounds tested included GOS and pectic oligosaccharides that had been further purified by ultrafiltration to remove nitrates.

[2] = test system: EPEC adhesion to HT29 cells; assay: Adhesion assay of EPEC to HT29 cell monolayers (Example 1); format: cell-based, E. coli; settings: oligosaccharide concentration 0.25%; initial inoculum 7.0 log cfu ml^−1; buffer only 5.3; 2 h at 37° C.
Method: (§1) HT29 cells were grown to 95-100% confluence in 12-well tissue culture plates. Bacterial cultures were grown in tissue culture medium, anaerobically at 37° C. These incubation conditions promoted expression of adhesions by the bacteria. The bacteria (in buffer, with or without the test oligosaccharide) were added to the cell monolayers and incubated for 2 h at 37° C. aerobically under 5% CO2. After incubation, the cell layers were washed three times in buffer and the adherent bacteria quantified. Assays were performed in triplicate
(§2) The tested oligosaccharides were methyl-α-mannopyrannoside and CGMP.
(§3) After the adhesion and washing stages, the cells were suspended and vigorously mixed to break up clumps. The resulting suspension was then plated onto non-selective agar media appropriate for the test organism.
(§4) The Initial inoculum was 7.3 log cfu ml^−1 (VTEC) and 7.0 log cfu ml^−1 (EPEC).

[3] = test system: VTEC adhesion to HT29 cells; assay: Adhesion assay of VTEC to HT29 cell monolayers (Example 1); format: cell-based, E. coli
Method: as §1, §2, §3, §4

[4] = test system: E. coli EPEC (O119:H4) adhesion to HT29 cells; assay: Adhesion assay of carbohydrates against E. coli EPEC on HT29 monolayers (Example 3); format: cell-based; settings: carbohydrate solution 5 mg/ml in PBS mixed 1:1 with bacterial suspension; 2 hours at 37° C. aerobically; relative to carbohydrate-free control
Method: The saccharides were tested against one strain of E. coli VTEC (0157:1H7 strain NCTC 12900) and one strain of E. coli EPEC (O119:H4).
E. coli broth cultures for adhesion assays were grown in DMEM supplemented with 5% v/v FBS and 1% non-essential amino acid solution (SDMEM). For each strain, a broth was inoculated from a slope culture and incubated anaerobically at 37° C. for 18-24 h. The overnight culture was then inoculated (1% v/v) into fresh SDMEM and incubated for a further 18-24 h under the same conditions. This was repeated once more. On the day of the assay, a 10% v/v inoculum was placed into pre-warmed SDMEM and incubated for 4 h anaerobically at 37° C.
A culture of the test strain was prepared as described above, then diluted 1:500 in PBS. The viable count of the diluted suspension was determined by spread plating onto PCA, with decimal dilutions carried out in MRD as necessary. The carbohydrates to be tested were dissolved in PBS (5 mg/ml) and sterilised by passing through a 0.2 μm syringe filter. […] A 1 ml aliquot of PBS was then pipetted into each well, and pipette mixed until the monolayer was completely dislodged and clumps broken up (as determined visually). […]
Data processing: Viable counts were calculated for all wells and the inoculum, and expressed as colony forming units per ml (cfu/ml). For each test, the mean and standard error of the triplicate wells were calculated. […]

| Molecule | Inhibition of adhesion of VTEC to HT29 cells (FIG. 2) [1] | Inhibition of adhesion of VTEC to HT29 cells (FIG. 1) [1] | further results |
| --- | --- | --- | --- |
| OC[C@H]1O[C@H](O[C@@H]2C(O)O[C@H](CO)[C@@H](O)[C@@H]2O)[C@@H](O)[C@@H](O)[C@@H]1O (stereo partly drawn) [Alpha 1,2 mannobiose] | Inhibition of adhesion was detected |  |  |
| CO[C@H]1O[C@H](CO)[C@@H](O)[C@H](O)[C@@H]1O [methyl-α-mannopyranoside, Methyl-α-D-mannopyranoside] | Inhibition of adhesion | good inhibition of adhesion | Viable count of adhered EPEC [2]: 5.1 log cfu ml^−1; Reduction in adhesion (in words) ([3]; oligosaccharide 0.25%, pathovar not given): reduction in adhesion; Viable count of adhered VTEC ([3]; oligosaccharide concentration 0.25%, initial inoculum 7.3 log cfu ml^−1, buffer only 6.3, 2 h at 37° C.): 4.8 log cfu ml^−1 |
| OC[C@H]1O[C@H](OC[C@H]2O[C@H](O)[C@@H](O)[C@@H](O)[C@@H]2O)[C@@H](O)[C@@H](O)[C@@H]1O [alpha 1,6 mannobiose] | Inhibition of adhesion was detected |  |  |
| β-1,3-glucan [curdlan] |  |  | Anti-adhesive activity against enteropathogenic E. coli EPEC (FIG. 5) [4]: positive |
| O=C[C@@H](O)[C@@H](O)[C@H](O)[C@H](O)CO [D-mannose] |  | good inhibition of adhesion |  |
